This note sets out measurements from patent publication US8710089B2, “Triazole derivatives as ghrelin analogue ligands of growth hormone secretagogue receptors” (Zentaris GmbH, priority 2005, dated 2014).

The structures appear in SMILES notation.

T1 sequence (Q92847 whole entry): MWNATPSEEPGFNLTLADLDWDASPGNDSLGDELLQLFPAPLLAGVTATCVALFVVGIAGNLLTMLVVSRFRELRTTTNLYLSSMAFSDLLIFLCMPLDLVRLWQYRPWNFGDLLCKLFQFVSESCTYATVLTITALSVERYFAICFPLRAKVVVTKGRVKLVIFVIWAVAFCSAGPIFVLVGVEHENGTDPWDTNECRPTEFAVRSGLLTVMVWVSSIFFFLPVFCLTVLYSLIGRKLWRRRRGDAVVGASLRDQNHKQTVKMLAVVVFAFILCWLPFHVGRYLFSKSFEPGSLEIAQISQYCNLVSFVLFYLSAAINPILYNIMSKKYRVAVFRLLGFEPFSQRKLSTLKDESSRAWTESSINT

This experiment addresses T1, human GHS-R 1a (Homo sapiens, UniProt Q92847).
T1 construct: expressed in transfected cells; host or cells: LLC PK-1 porcine renal epithelial cells (ECACC No. 86121112), isolated plasma membranes
As to the kind of experiment: GHS-R 1a receptor-ligand binding assay (membrane preparations from transfected LLC PK-1 cells). To be noted: displacement of 125I-His9-ghrelin (60 pM); membranes of LLC PK-1 cells transfected with human GHS-R 1a; mean of at least two independent experiments in triplicates. Here is the method:
(J. Med. […] Med. Chem. 2003, 46: 1191-1203), were incubated in homogenization buffer HB [50 mM Tris (pH 7.3), 5 mM MgCl2, 2.5 mM EDTA, and 30 μg/mL bacitracin (Sigma)] for 60 min at 25° C. (steady-state conditions) with 60 pM ^125I-[…]-ghrelin (Amersham) in the presence or absence of competing compounds (compounds of the invention). […] Nonspecific binding was defined using an excess (10^-6 M) of ghrelin. The binding reaction was stopped by addition of 4 mL of ice-cold HB followed by rapid filtration over Whatman GP/C filters presoaked with 0.5% polyethyleneimine to prevent excessive binding of radioligand to the filters. […] IC50 values given are the mean of at least two independent experiments performed in triplicates.
For orientation: In a radioligand displacement assay an active substance lowers the binding of a labelled ligand.
What is called IC50 is the point on the concentration scale where inhibition reaches its midpoint. A high value points to lower potency. With `CC(C)(N)C(=O)N[C@H](Cc1c[nH]c2ccccc12)c1nnc(CCc2c[nH]c3ccccc23)n1Cc1cccc2ccccc12` [compound 5, (R)—N-(1-(5-(2-(1H-indol-3-yl)ethyl)-4-(naphthalen-1-ylmethyl)-4H-1,2,4-triazol-3-yl)-2-(1H-indol-3-yl)ethyl)-2-amino-2-methylpropanamide], the IC50 came to 125 nM.

`CC(C)(N)C(=O)N[C@H](Cc1c[nH]c2ccccc12)c1nnc(Cc2ccccc2)n1Cc1cccc2ccccc12` [compound 4, (R)—N-(1-(5-benzyl-4-(naphthalen-1-ylmethyl)-4H-1,2,4-triazol-3-yl)-2-(1H-indol-3-yl)ethyl)-2-amino-2-methylpropanamide] displayed an IC50 of 220 nM.

`O=C(N[C@H](Cc1c[nH]c2ccccc12)c1nnc(CCc2ccccc2)n1Cc1cccs1)C1CCNCC1` [compound 94, (R)—N-(2-(1H-indol-3-yl)-1-(5-phenethyl-4-(thiophen-2-ylmethyl)-4H-1,2,4-triazol-3-yl)ethyl)piperidine-4-carboxamide] displayed a half-inhibitory concentration (IC50) of 255 nM.

For `Cc1ccc(Cn2c(CCCc3ccccc3)nnc2[C@@H](Cc2c[nH]c3ccccc23)NC(=O)C(C)(C)N)cc1` [compound 33, (R)—N-(1-(4-(4-methylbenzyl)-5-(3-phenylpropyl)-4H-1,2,4-triazol-3-yl)-2-(1H-indol-3-yl)ethyl)-2-amino-2-methylpropanamide], the IC50 was 30 nM. This IC50 lies about 8.5-fold lower than the previous one.

The compound `COc1ccc(Cn2c(CCc3ccccc3)nnc2[C@@H](Cc2c[nH]c3ccccc23)NC(=O)[C@H]2CCCNC2)cc1` [compound 41, (S)—N—((R)-1-(4-(4-methoxybenzyl)-5-phenethyl-4H-1,2,4-triazol-3-yl)-2-(1H-indol-3-yl)ethyl)piperidine-3-carboxamide] registered an IC50 of 16 nM.

With `COC(=O)CCn1nnnc1[C@@H](Cc1c[nH]c2ccccc12)NC(=O)C(C)(C)N` [Example 3 from WO 00/54729 A2, (R)—N-(1-(1-methylpropanoate-tetrazol-5-yl)-2-(1H-indol-3-yl)ethyl)-2-amino-2-methylpropanamide, reference compound], the IC50 is around 3000 nM.

The compound `COc1ccc(Cn2c(CCc3c[nH]c4ccccc34)nnc2[C@@H](Cc2c[nH]c3ccccc23)NC(=O)[C@@H]2CCCN2)c(OC)c1` [compound 70, (S)—N—((R)-1-(5-(2-(1H-indol-3-yl)ethyl)-4-(2,4-dimethoxybenzyl)-4H-1,2,4-triazol-3-yl)-2-(1H-indol-3-yl)ethyl)pyrrolidine-2-carboxamide] returned an IC50 of 6 nM.

Regarding `COc1ccc(Cn2c(CCc3c[nH]c4ccccc34)nnc2[C@@H](Cc2c[nH]c3ccccc23)NC(=O)[C@@H]2C=CCN2)cc1` [compound 190, (2S)—N—((R)-1-(5-(2-(1H-indol-3-yl)ethyl)-4-(4-methoxybenzyl)-4H-1,2,4-triazol-3-yl)-2-(1H-indol-3-yl)ethyl)-2,5-dihydro-1H-pyrrole-2-carboxamide], the IC50 is 12 nM.

`COc1ccc(Cn2c(CCc3ccccc3)nnc2[C@@H](Cc2c[nH]c3ccccc23)NC(=O)C2CNCCN2)c(OC)c1` (stereo partly drawn) [compound 67]: the IC50 was determined as 35 nM.

`COc1ccc(Cn2c(CCc3ccccc3)nnc2[C@@H](Cc2c[nH]c3ccccc23)NC(=O)[C@@H]2CCCNC2)cc1` [compound 42, (R)—N—((R)-1-(4-(4-methoxybenzyl)-5-phenethyl-4H-1,2,4-triazol-3-yl)-2-(1H-indol-3-yl)ethyl)piperidine-3-carboxamide] gave an IC50 of 7 nM.

The compound `COc1cccc(Cn2c(CCCc3c[nH]c4ccccc34)nnc2[C@@H](Cc2c[nH]c3ccccc23)NC(=O)C(C)(C)N)c1` [compound 10, (R)—N-(1-(5-(3-(1H-indol-3-yl)propyl)-4-(3-methoxybenzyl)-4H-1,2,4-triazol-3-yl)-2-(1H-indol-3-yl)ethyl)-2-amino-2-methylpropanamide] showed an IC50 of 32 nM.

In turn, `COc1ccc(Cn2c(CCc3c[nH]c4ccccc34)nnc2[C@@H](Cc2c[nH]c3ccccc23)NC(=O)[C@H]2CCCNC2)cc1` [compound 87, (S)—N—((R)-1-(5-(2-(1H-indol-3-yl)ethyl)-4-(4-methoxybenzyl)-4H-1,2,4-triazol-3-yl)-2-(1H-indol-3-yl)ethyl)piperidine-3-carboxamide] displayed a half-maximal inhibitory concentration (IC50) of 10 nM. Against the preceding compound, the IC50 is about 3.2-fold lower.

`CC(C)(N)C(=O)N[C@H](Cc1c[nH]c2ccccc12)c1nnc(CCc2c[nH]c3ccccc23)n1CCc1ccccc1` [compound 2, (R)—N-(1-(5-(2-(1H-indol-3-yl)ethyl)-4-phenethyl-4H-1,2,4-triazol-3-yl)-2-(1H-indol-3-yl)ethyl)-2-amino-2-methylpropanamide] showed an IC50 of 81 nM.

For the compound `COc1ccc(Cn2c(CCc3ccccc3)nnc2[C@@H](Cc2c[nH]c3ccccc23)NC(=O)c2ccccn2)cc1` [compound 79, (R)—N-(1-(4-(4-methoxybenzyl)-5-phenethyl-4H-1,2,4-triazol-3-yl)-2-(1H-indol-3-yl)ethyl)picolinamide], the IC50 was 0.7 nM.

`COc1ccc(Cn2c(CCc3ccccc3)nnc2[C@@H](Cc2c[nH]c3ccccc23)NC(=O)c2cnccn2)c(OC)c1` [compound 66, (R)—N-(1-(4-(2,4-dimethoxybenzyl)-5-phenethyl-4H-1,2,4-triazol-3-yl)-2-(1H-indol-3-yl)ethyl)pyrazine-2-carboxamide]: the IC50 was 8 nM.

`COc1ccc(Cn2c(CCc3ccccc3)nnc2[C@@H](Cc2c[nH]c3ccccc23)NC(=O)c2ccncc2)c(OC)c1` [compound 65, (R)—N-(1-(4-(2,4-dimethoxybenzyl)-5-phenethyl-4H-1,2,4-triazol-3-yl)-2-(1H-indol-3-yl)ethyl)isonicotinamide] registered an IC50 of 58 nM.

`COc1ccc(Cn2c(CCc3ccccc3)nnc2[C@@H](Cc2c[nH]c3ccccc23)NC(=O)[C@@H](N)Cc2ccccc2)cc1` [compound 186, (2S)—N—((R)-1-(4-(4-methoxybenzyl)-5-phenethyl-4H-1,2,4-triazol-3-yl)-2-(1H-indol-3-yl)ethyl)-2-amino-3-phenylpropanamide] had an IC50 of 175 nM.

`COc1ccc(Cn2c(CCc3ccccc3)nnc2[C@@H](Cc2c[nH]c3ccccc23)NC(=O)[C@@H]2CCCN2)cc1` [compound 46, (S)—N—((R)-1-(4-(4-methoxybenzyl)-5-phenethyl-4H-1,2,4-triazol-3-yl)-2-(1H-indol-3-yl)ethyl)pyrrolidine-2-carboxamide] yielded an IC50 of 12 nM.

In the case of `COc1ccc(-n2c(CCc3ccccc3)nnc2[C@@H](Cc2c[nH]c3ccccc23)NC(=O)c2ccccn2)c(OC)c1` [compound 159, N—((R)-2-(1H-indol-3-yl)-1-(4-(2,4-dimethoxyphenyl)-5-phenethyl-4H-1,2,4-triazol-3-yl)ethyl)picolinamide], the half-maximal inhibitory concentration (IC50) is 33 nM.

`COc1ccc(Cn2c(CCc3c[nH]c4ccccc34)nnc2[C@@H](Cc2c[nH]c3ccccc23)NC(=O)CN)c(OC)c1` [compound 69, (R)—N-(1-(5-(2-(1H-indol-3-yl)ethyl)-4-(2,4-dimethoxybenzyl)-4H-1,2,4-triazol-3-yl)-2-(1H-indol-3-yl)ethyl)-2-aminoacetamide]: the IC50 stood at 38 nM.

`COc1ccc(Cn2c(CCc3c[nH]c4ccccc34)nnc2[C@@H](Cc2c[nH]c3ccccc23)NC(=O)[C@H]2CCCCN2)cc1` [compound 88, (R)—N—((R)-1-(5-(2-(1H-indol-3-yl)ethyl)-4-(4-methoxybenzyl)-4H-1,2,4-triazol-3-yl)-2-(1H-indol-3-yl)ethyl)piperidine-2-carboxamide] yielded a half-inhibitory concentration (IC50) of 29 nM. This IC50 and that of the compound before are within 1.5-fold of each other.
